The values below come from paper PMC4449006, “Targeting KRAS Oncogene in Colon Cancer Cells with 7-Carboxylate Indolo[3,2-b]quinoline Tri-Alkylamine Derivatives” (PLoS ONE, 2015).

One assay has as its system HEK293T cells. In words: MTS short-term cytotoxicity assay (72 h), HEK293T. It counts as cell-based, human. Here is the method:
(§1) The short-term effect of compounds at 72 h on cell growth was studied using colorectal carcinoma cell lines with different KRAS and TP53 genotypes: human colorectal carcinoma HCT116 (mut Kras, wild-type (wt) p53), and human metastatic colorectal adenocarcinoma SW620 (mut Kras, mut p53). In parallel, we also used the immortalized human embryonic kidney cell line HEK293T (wt Kras, wt p53) and normal human colon fibroblast cells CCD18co (wt Kras, wt p53).
(§2) SW620 human colorectal adenocarcinoma cells (European Collection of Cell Cultures, ECACC, Porton Down, Wiltshire, UK), HEK293T human embryonic kidney cells (ATCC, LGC Standards, UK) HCT116 human colon carcinoma cells (ECACC), HCT116 p53(+/+) and p53(−/−) isogenic human colon cancer cells (GRCF Cell Center and Biorepository, the Johns Hopkins University, School of Medicine, Baltimore, MD, USA), were grown in Dulbecco’s modified Eagle’s medium (DMEM) supplemented with 10% fetal bovine serum, and 1% antibiotic/antimycotic (Invitrogen, Grand Island, NY, USA), CCD18co human colon fibroblasts (ATCC, CRL-1459) were grown in Minimum Essential Medium (MEM) supplemented with 10% fetal bovine serum, 1% antibiotic/antimycotic, 2 mM GlutaMAX, 0,1 mM Non-essential amino acids (NEAA) (Invitrogen) and […] Recombinant Human TNF-α (Peprotech, USA) and maintained at 37°C in a humidified atmosphere of 5% CO2.
(§3) Cell viability was evaluated by the tetrazolium dye (MTS) Short-Term Cytotoxicity Assay. […] Following 72 h of compound exposure, cell viability was evaluated using the CellTiter 96 AQueous Non-Radioactive Cell Proliferation Assay (Promega, Madison, WI, USA), using 3-(4,5-dimethylthiazol-2-yl)-5-(3-carboxymethoxyphenyl)-2-(4-sulfophenyl)-2H-tetrazolium, inner salt (MTS) as previously described [35]. Cell viability data were expressed as mean ±SD from at least three independent experiments. IC50 and IC65 values were determined using GaphPad Prism v.5.00 (GraphPad Software). In selected experiments, cell viability was also assessed by trypan blue exclusion assay, and general cell death by LDH activity from cell culture supernatants.

Another assay has as its system HCT116 cells. In words: MTS short-term cytotoxicity assay (72 h), HCT116. It counts as cell-based, human. Here is the method: as §1, §2, §3
In the next assay the test system is SW620 cells. In words: MTS short-term cytotoxicity assay (72 h), SW620. Type of assay: cell-based. The method, then: as §1, §2, §3
The subject of a further assay is KRAS mRNA. Description: KRAS mRNA steady-state levels by Taqman Real-time RT-PCR. As to conditions: HCT116, 72 h, equitoxic concentration. (In qPCR the cycle at which signal appears reflects the starting amount.)
The subject of another assay is KRAS protein. Description: KRAS protein steady-state expression by immunoblot. As to conditions: HCT116, 72 h, equitoxic (IC50) concentration. (A western blot detects proteins with antibodies after separation by electrophoresis.)
The next assay has as its system KRAS gene promoter. Description: KRAS promoter activity Dual-Luciferase reporter assay. As to conditions: HCT116 and SW620 cells, PGL-Ras0.5, 24 h, IC50 concentrations. It counts as cell-based, human. The source says: To validate that the mechanism of anti-proliferative activity and apoptotic induction by IQ3A compounds involves repression of KRAS gene expression as a result of the stabilization of G4-forming sequences present in the promoter, the effects of compounds on the KRAS gene promoter were directly evaluated by a luciferase reporter assay. For this purpose, we used two different size promoter constructs containing the G4 region of the KRAS gene promoter, cloned into the pGL3 Basic backbone: pGL-Ras0.5, pGL-Ras2.0, and pGL3 Basic empty (Firefly Luciferase negative control/no promoter), co-transfected together with pRL-TK (transfection efficiency normalization) into HEK293T cells, as a G4 negative control.
KRAS promotor luciferase reporters respectively harbor 500 bp and 2000 bp of the human KRAS promotor region, kindly provided by Prof. Kim Nam-Soon. pGL3 Basic empty was used as negative control, and pRL-TK simultaneously for transfection efficiency normalization and as a G4 negative control. […] Finally, 72 h after compound incubation, cells were lysed and firefly and renilla luciferase activities were measured using Dual-Luciferase Reporter Assay System (Promega). […] Twenty-four h later, cells were lysed and renilla luciferase activities were measured and expressed as above. The results are expressed as the mean ± SEM fold-change compared to DMSO exposure, from three independent experiments.
(In general: Reporter assays use an easily measured gene product as a stand-in for the process of interest.)

A further assay deals with T-Loop duplex DNA. In words: FRET melting assay, duplex DNA. It counts as binding. As to conditions: 1 μM compound; standard deviation < 0.2°C. The method, then: (§4) The capacity of compounds 1a-d, 2a-d and the standard G4 ligand TMPyP4 (Fig 1) to bind and stabilize KRAS [26] and HSP90A [27] G4 DNA structures as well as duplex DNA (T-loop) was evaluated by a Fluorescence Resonance Energy Transfer (FRET) melting assay. […] It was observed that the basicity of side chains correlates positively with thermal G4 stabilization of all DNA sequences up to an optimal pKa ~ 8.0–9.0 (Fig 2). Heterocyclic amines at the end of alkyl side chain (1b and 2b) appear to improve binding to G4s and complex stabilization compared to the di-ethylamine group (1a and 2a), which cannot be explained by differences in basicity between terminal groups. […] However, this was not observed for the isomeric pair 1a / 2a.
(§5) All oligonucleotides were purchased from Eurofins MWG Synthesis GmbH, Germany. The labeled oligonucleotides used in the FRET assays had attached the donor fluorophore FAM (6-carboxyfluorescein) and the acceptor fluorophore TAMRA (6-carboxytetramethylrhodamine): KRAS21R (5’-FAM-[…]-TAMRA-3’); HSP90A (5’- [FAM]-[…]-[TAMRA]-3’); T-Loop (5’-FAM-[…]-TAMRA-3’). Each oligonucleotide was initially diluted to a storage solution at 100 μM in nuclease free water (not DEPC-treated), purchased from Ambion Applied Biosystems UK.
(§6) The ability of IQ3A and TMPyP4 to stabilize G-quadruplex and duplex DNA sequences was investigated using a Fluorescence Resonance Energy Transfer (FRET) assay. Stock solution of the oligonucleotides sequences at 20 μM and subsequent dilutions were obtained from storage solutions diluting with K-cacodylate buffer pH = 7.4, containing 60 mM K^+ (10 mM potassium cacodylate, 50 mM KCl). The FRET probe sequences were diluted from stock to the correct concentration (0.4 μM) and then annealed by heating to 95°C for 10 min, followed by cooling to RT. Test compounds were prepared as 1 mM in 10% DMSO and 10% 1mM HCl in HPLC-grade water. The rest of the dilutions were performed using FRET buffer. Annealed DNA (50 μL) and compound solution (50 μL) were distributed across 96-well RT-PCR plates (BioRad; MJ Research, Waltham, MA, USA). Relevant controls were also performed to check for interference with the assay. Fluorescence readings were made on a DNA Engine Opticon (MJ Research) with excitation at 450–495 nm and detection at 515–545 nm, taken at intervals of 0.5°C in the range 30–100°C, with a constant temperature being maintained for 30 s prior to each reading to ensure a stable value. Experiments were performed in triplicate. Final analysis of the data was carried out with GraphPad Prism 5.0 software (GraphPad Software, Inc). The advanced curve-fitting function in GraphPad Prism was used for calculation of ΔT m values and associated standard deviations.

A further assay has as its system KRAS21 G-quadruplex DNA. Description: FRET melting assay, KRAS G-quadruplex DNA. Type of assay: binding. As to conditions: 1 μM compound; standard deviation < 0.2°C. The method, then:
as §4, §5, §6

The subject of the next assay is CCD18co cells. Description: MTS short-term cytotoxicity assay (72 h), CCD18co. It counts as cell-based. As to conditions: Homo sapiens, CCD-18Co, read-out: CCD18co IC50. Here is the method: as §1, §2, §3
Where [1] appears, read: 72 h, MTS, standard errors ≤ 0.1.

Molecules are shown by their SMILES. pIC50: −log10 of the molar value.

The term pIC50 denotes the negative decadic logarithm of the IC50, by convention in mol/L. In the case of `C[n+]1ccc(-c2c3nc(c(-c4cc[n+](C)cc4)c4ccc([nH]4)c(-c4cc[n+](C)cc4)c4ccc([nH]4)c(-c4cc[n+](C)cc4)c4nc2C=C4)C=C3)cc1` [TMPyP4, reference compound], the pIC50 in the assay on HEK293T cells (Homo sapiens, HEK-293T, read-out: HEK293T IC50) was 5.53; in the assay on HCT116 cells (Homo sapiens, HCT-116, 72 h, read-out: HCT116 IC50), 4.91; in the assay on SW620 cells (Homo sapiens, SW-620, 72 h, read-out: SW620 IC50) it was less than 4.70; with CCD18co cells, 4.42. For the same compound, the “HEK293T IC65” value in the assay on HEK293T cells (MTS, standard errors ≤ 0.1) was 4.11 µM. For the same compound, the “HCT116 IC65” value in the assay with HCT116 cells (setting [1]) was determined as 14.21 µM. In addition, the “Selective index (SI) = IC50 CCD-18co / IC50 HCT116” value in the assay on HCT116 cells (CCD18co vs HCT116) amounted to 3.08. Besides, the “SW620 IC65” value in the assay on SW620 cells (setting [1]) was more than 20 µM. Further, the “reduction of KRAS mRNA steady-state levels” value in the assay with KRAS mRNA is reported as “unable to reduce KRAS mRNA steady-state levels”. For the same compound, the “decrease of KRAS protein steady-state levels” value in the assay with KRAS protein was approximately 80%. In addition, the “reduction of KRAS promoter activity” value in the assay on KRAS gene promoter is listed as “significantly reduce KRAS promoter activity”. Moreover, the “ΔTm (°C) T-Loop 1 μM” value with T-Loop duplex DNA was 16 °C. In the assay on KRAS21 G-quadruplex DNA, the “ΔTm (°C) KRAS21 1 μM” value turned out to be 25 °C.
